How the values were obtained:
[1] = Measurement of logP values by HPLC on reversed phase columns (EEC directive 79/831 Annex V.A8); format: physicochemical; conditions: pH 2.7, 0.1% formic acid in water / acetonitrile gradient, calibration with alkan-2-ones
Protocol: Measurement of logP values was performed according EEC directive 79/831 Annex V.A8 by HPLC (High Performance Liquid Chromatography) on reversed phase columns with the following methods:
Measurement of LC-MS was done at pH 2.7 with 0.1% formic acid in water and with acetonitrile (contains 0.1% formic acid) as eluent with a linear gradient from 10% acetonitrile to 95% acetonitrile.
Calibration was done with not branched alkan2-ones (with 3 to 16 carbon atoms) with known logP-values (measurement of logP values using retention times with linear interpolation between successive alkanones). lambda-maX-values were determined using UV-spectra from 200 nm to 400 nm and the peak values of the chromatographic signals.

Phytophthora infestans = format: in vivo; conditions: tomato plants, preventive spray, 500 ppm of active ingredient, evaluated 7 days after inoculation; 0% = untreated control, 100% = no disease

SMILES | Log P [1] | Eff. % (Phytophthora infestans) [%]
Cn1nnnc1C(=NOCc1cccc(NC(=O)COCC2CC2)n1)c1ccccc1 [Example 1] | 3.29 | 
CC(OCC1CC1)C(=O)Nc1ccc(Br)c(CON=C(c2ccccc2)c2nnnn2C)n1 (stereo not drawn) [Example 3] | 4.23 | 100
Cn1nnnc1C(=NOCc1cccc(NC(=O)COCC2CCCC2)n1)c1ccccc1 [Example 5] | 4.24 | 97
Cn1nnnc1C(=NOCc1cccc(NC(=O)COCC2CCCCC2)n1)c1ccccc1 [Example 6] | 4.63 | 95
CC(OCC1CCCCC1)C(=O)Nc1cccc(CON=C(c2ccccc2)c2nnnn2C)n1 (stereo not drawn) [Example 7] | 5.03 | 100
CC(OCC1CCCC1)C(=O)Nc1cccc(CON=C(c2ccccc2)c2nnnn2C)n1 (stereo not drawn) [Example 8] | 4.59 | 100
Cn1nnnc1C(=NOCc1cccc(NC(=O)COCCC2CCCCC2)n1)c1ccccc1 [Example 10] | 4.98 | 95
Cn1nnnc1C(=NOCc1cccc(NC(=O)COCCC2CCCC2)n1)c1ccccc1 [Example 11] | 4.61 | 95
CC(OCC1CCCCC1)C(=O)Nc1nc(CON=C(c2ccccc2)c2nnnn2C)cs1 (stereo not drawn) [Example 18] | 4.64 | 100
Cn1nnnc1C(=NOCc1csc(NC(=O)COCCC2CCCCC2)n1)c1ccccc1 [Example 20] | 4.63 | 100
Cn1nnnc1C(=NOCc1csc(NC(=O)COCCC2CCCC2)n1)c1ccccc1 [Example 21] | 4.29 | 95
Cc1nnnn1C(=NOCc1cccc(NC(=O)COCC2CC2)n1)c1ccccc1 [Example 23] | 3.33 | 95
Cc1nnnn1C(=NOCc1cccc(NC(=O)COCC2CCCC2)n1)c1ccccc1 [Example 26] | 4.34 | 97
Cc1nnnn1C(=NOCc1cccc(NC(=O)COCC2CCCCC2)n1)c1ccccc1 [Example 27] | 4.76 | 95
Cc1nnnn1C(=NOCc1cccc(NC(=O)C(C)OCC2CCCCC2)n1)c1ccccc1 (stereo not drawn) [Example 28] | 5.13 | 100
Cc1nnnn1C(=NOCc1cccc(NC(=O)C(C)OCC2CCCC2)n1)c1ccccc1 (stereo not drawn) [Example 29] | 4.69 | 100
Cc1nnnn1C(=NOCc1cccc(NC(=O)COCCC2CCCCC2)n1)c1ccccc1 [Example 30] | 5.08 | 95
Cc1nnnn1C(=NOCc1cccc(NC(=O)COCCC2CCCC2)n1)c1ccccc1 [Example 31] | 4.73 | 97
Cc1nnnn1C(=NOCc1cccc(NC(=O)C(C)OCC2CCC2)n1)c1ccccc1 (stereo not drawn) [Example 32] | 4.26 | 100
Cc1nnnn1C(=NOCc1csc(NC(=O)COCC2CCCC2)n1)c1ccccc1 [Example 36] | 3.94 | 97
Cc1nnnn1C(=NOCc1csc(NC(=O)COCC2CCCCC2)n1)c1ccccc1 [Example 37] | 4.36 | 100
Cc1nnnn1C(=NOCc1csc(NC(=O)C(C)OCC2CCCCC2)n1)c1ccccc1 (stereo not drawn) [Example 38] | 4.74 | 100

SMILES | Log P [1] | Eff. % (Phytophthora infestans) [%]
Cc1nnnn1C(=NOCc1csc(NC(=O)C(C)OCC2CCCC2)n1)c1ccccc1 (stereo not drawn) [Example 39] | 4.31 | 100
Cc1nnnn1C(=NOCc1csc(NC(=O)COCCC2CCCCC2)n1)c1ccccc1 [Example 40] | 4.71 | 95
Cc1nnnn1C(=NOCc1csc(NC(=O)COCCC2CCCC2)n1)c1ccccc1 [Example 41] | 4.34 | 98
CC(C)CCOCC(=O)Nc1cccc(CON=C(c2ccccc2)c2nnnn2C)n1 [Example 43] | 4.09 | 
CC(C)CCOC(C)C(=O)Nc1cccc(CON=C(c2ccccc2)c2nnnn2C)n1 (stereo not drawn) [Example 44] | 4.41 | 100
Cc1nnnn1C(=NOCc1csc(NC(=O)COCCC(C)C)n1)c1ccccc1 [Example 46] | 3.87 | 100
CC(OCc1ccccc1)C(=O)Nc1cccc(CON=C(c2ccccc2)c2nnnn2C)n1 (stereo not drawn) [Example 47] | 3.92 | 
Cc1nnnn1C(=NOCc1cccc(NC(=O)C(C)OCc2ccccc2)n1)c1ccccc1 (stereo not drawn) [Example 51] | 4.11 | 95
Cn1nnnc1C(=NOCc1cccc(NC(=O)COCC2CCCCO2)n1)c1ccccc1 (stereo not drawn) [Example 53] | 3.33 | 
CC(OCC1CCCCO1)C(=O)Nc1cccc(CON=C(c2ccccc2)c2nnnn2C)n1 (stereo not drawn) [Example 55] | 3.67 | 100
Cn1nnnc1C(=NOCc1csc(NC(=O)COCC2CCCCO2)n1)c1ccccc1 (stereo not drawn) [Example 57] | 3.25 | 95
CC(OCC1CCCCO1)C(=O)Nc1nc(CON=C(c2ccccc2)c2nnnn2C)cs1 (stereo not drawn) [Example 59] | 3.62 | 100
Cc1nnnn1C(=NOCc1cccc(NC(=O)COCC2CCCO2)n1)c1ccccc1 (stereo not drawn) [Example 61] | 2.98 | 
Cc1nnnn1C(=NOCc1csc(NC(=O)C(C)OCC2CCCCO2)n1)c1ccccc1 (stereo not drawn) [Example 62] | 3.69 | 98
Cn1nnnc1C(=NOCc1cccc(NC(=O)CSCc2ccccc2)n1)c1ccccc1 [Example 64] | 3.78 | 
C=CCSC(C)C(=O)Nc1cccc(CON=C(c2ccccc2)c2nnnn2C)n1 (stereo not drawn) [Example 66] |  | 95
Cn1nnnc1C(=NOCc1cccc(NC(=O)OCC(C)(C)OCc2ccccc2)n1)c1ccccc1 [Example 68] | 4.34 | 100
Cn1nnnc1C(=NOCc1csc(NC(=O)CSCc2cccs2)n1)c1ccccc1 [Example 69] | 3.46 | 95
C=CCSCC(=O)Nc1nc(CON=C(c2ccccc2)c2nnnn2C)cs1 [Example 72] | 3.11 | 100
CC(SC1CCCC1)C(=O)Nc1nc(CON=C(c2ccccc2)c2nnnn2C)cs1 (stereo not drawn) [Example 73] | 3.99 | 95
C=CCSC(C)C(=O)Nc1nc(CON=C(c2ccccc2)c2nnnn2C)cs1 (stereo not drawn) [Example 75] | 3.31 | 93
Cn1nnnc1C(=NOCc1csc(NC(=O)CSC2CCCCC2)n1)c1ccccc1 [Example 76] | 3.92 | 100

SMILES | Log P [1] | Eff. % (Phytophthora infestans) [%]
Cn1nnnc1C(=NOCc1csc(NC(=O)CSC2CCCC2)n1)c1ccccc1 [Example 77] | 3.65 | 95
Cc1ccccc1CSCC(=O)Nc1cccc(CON=C(c2ccccc2)n2nnnc2C)n1 [Example 78] | 4.06 | 100
Cc1nnnn1C(=NOCc1cccc(NC(=O)CSC2CCCCC2)n1)c1ccccc1 [Example 79] | 4.26 | 100
Cc1nnnn1C(=NOCc1cccc(NC(=O)CSC2CCCC2)n1)c1ccccc1 [Example 80] | 3.92 | 100
Cc1nnnn1C(=NOCc1csc(NC(=O)CSCCC(C)C)n1)c1ccccc1 [Example 81] | 3.99 | 95
Cc1nnnn1C(=NOCc1csc(NC(=O)C(C)SCc2ccccc2)n1)c1ccccc1 (stereo not drawn) [Example 82] | 3.85 | 100
C=CCSCC(=O)Nc1nc(CON=C(c2ccccc2)n2nnnc2C)cs1 [Example 83] | 3.15 | 88
Cc1nnnn1C(=NOCc1csc(NC(=O)CSCc2cccs2)n1)c1ccccc1 [Example 84] | 3.51 | 98
C=CCSC(C)C(=O)Nc1nc(CON=C(c2ccccc2)n2nnnc2C)cs1 (stereo not drawn) [Example 85] | 3.35 | 98
Cc1nnnn1C(=NOCc1csc(NC(=O)CSCc2ccccc2)n1)c1ccccc1 [Example 86] | 3.57 | 93
Cc1nnnn1C(=NOCc1csc(NC(=O)CSCC2CC2)n1)c1ccccc1 [Example 87] | 3.31 | 100
Cc1nnnn1C(=NOCc1csc(NC(=O)CSC2CCCCC2)n1)c1ccccc1 [Example 89] | 3.96 | 100
Cc1nnnn1C(=NOCc1csc(NC(=O)CSC2CCCC2)n1)c1ccccc1 [Example 90] | 3.65 | 95
Cn1nnnc1C(=NOCc1cccc(NC(=O)C2CC2c2ncc(C(F)(F)F)cc2Cl)n1)c1ccccc1 (stereo not drawn) [Example 92] | 4.54 | 98
Cn1nnnc1C(=NOCc1csc(NC(=O)C2CC2c2ncc(C(F)(F)F)cc2Cl)n1)c1ccccc1 (stereo not drawn) [Example 93] | 4.37 | 98
Cn1nnnc1C(=NOCc1cccc(NC(=O)C(C)(C)CSC2CCCCC2)n1)c1ccccc1 [Example 94] | 4.98 | 100
CC(OCC(=O)Nc1cccc(CON=C(c2ccccc2)c2nnnn2C)n1)c1ccccc1 (stereo not drawn) [Example 95] | 3.94 | 100
CC(COCc1ccccc1)C(=O)Nc1cccc(CON=C(c2ccccc2)c2nnnn2C)n1 (stereo not drawn) [Example 97] | 3.85 | 100
Cn1nnnc1C(=NOCc1cccc(NC(=O)CCOCc2ccccc2)n1)c1ccccc1 [Example 99] | 3.48 | 90
Cn1nnnc1C(=NOCc1cccc(NC(=O)CCSCc2ccc(F)cc2)n1)c1ccccc1 [Example 100] | 3.87 | 95
Cn1nnnc1C(=NOCc1cccc(NC(=O)CCSCc2ccccc2)n1)c1ccccc1 [Example 101] | 3.83 | 90

Reference: US20140051575A1 (priority 2011, published 2014)
